Measurements reported in PubChem BioAssay AID248 (DTP/NCI, 2004).
Several values for one entry are separate records, joined by “and”; a condition that tells them apart may be missing. Equal values may be shown once. Inconclusive results and toxic doses are left out.

Tested on: L1210 leukemia ip in BDF1 mice, survival T/C
Assay: NCI In Vivo Anticancer Drug Screen. Data for tumor model L1210 Leukemia (intraperitoneal) in B6D2F1 (BDF1) mice
Conditions: higher = longer survival
Outline: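 Ratio derived from survival: compound-dosed mice over vehicle-dosed mice, all bearing a transplantable tumor.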

[1] = endpoint: mean survival time, dose: 100.0 mg/kg/injection, schedule: Q04DX002 (ip), vehicle: saline with Tween-80
[2] = endpoint: mean survival time, dose: 100.0 mg/kg/injection, schedule: Q01DX001 (ip), vehicle: Klucel (hydroxypropylcellulose) (HPC)
[3] = endpoint: mean survival time, dose: 200.0 mg/kg/injection, schedule: Q01DX001 (ip), vehicle: Klucel (hydroxypropylcellulose) (HPC)
[4] = endpoint: mean survival time, dose: 400.0 mg/kg/injection, schedule: Q01DX001 (ip), vehicle: Klucel (hydroxypropylcellulose) (HPC)
[5] = endpoint: mean survival time, dose: 100.0 mg/kg/injection, schedule: Q01DX001 (ip), vehicle: saline
[6] = endpoint: mean survival time, dose: 200.0 mg/kg/injection, schedule: Q01DX001 (ip), vehicle: saline

For COC(=O)C[C@](O)(CCCC(C)(C)O)C(=O)O[C@@H]1C(OC)=C[C@]23CCCN2CCc2cc4c(cc2[C@H]13)OCO4, the T/C (endpoint: mean survival time, dose: 0.06 mg/kg/injection, schedule: Q01DX009 (ip), vehicle: water) was 110 % of control, the T/C (endpoint: mean survival time, dose: 0.13 mg/kg/injection, schedule: Q01DX009 (ip), vehicle: water) was 111 % of control and the T/C (endpoint: mean survival time, dose: 0.25 mg/kg/injection, schedule: Q01DX009 (ip), vehicle: acid diluted with saline) was 113 % of control. The T/C (endpoint: mean survival time, dose: 0.25 mg/kg/injection, schedule: Q01DX009 (ip), vehicle: water) was 113 % of control and 123 % of control (2×), the T/C (endpoint: mean survival time, dose: 0.25 mg/kg/injection, schedule: Q03HX008 (ip), vehicle: acid diluted with saline) was 114 % of control and the T/C (endpoint: mean survival time, dose: 0.25 mg/kg/injection, schedule: Q03HX016 (ip), vehicle: acid diluted with saline) was 108 % of control. The T/C (endpoint: mean survival time, dose: 0.5 mg/kg/injection, schedule: Q01DX006 (iv), vehicle: acid diluted with saline) was 111 % of control, the T/C (endpoint: mean survival time, dose: 0.5 mg/kg/injection, schedule: Q01DX009 (ip), vehicle: acid diluted with saline) was 120 % of control and the T/C (endpoint: mean survival time, dose: 0.5 mg/kg/injection, schedule: Q01DX009 (oral), vehicle: acid diluted with saline) was 105 % of control. The T/C (endpoint: mean survival time, dose: 0.5 mg/kg/injection, schedule: Q01DX009 (oral), vehicle: saline) was 103 % of control, the T/C (endpoint: mean survival time, dose: 0.5 mg/kg/injection, schedule: Q01DX009 (sc), vehicle: acid diluted with saline) was 100 % of control and the T/C (endpoint: mean survival time, dose: 0.5 mg/kg/injection, schedule: Q01DX009 (sc), vehicle: saline) was 112 % of control. For the same molecule, the T/C (endpoint: mean survival time, dose: 0.5 mg/kg/injection, schedule: Q03HX008 (ip), vehicle: acid diluted with saline) was 120 % of control, the T/C (endpoint: mean survival time, dose: 0.5 mg/kg/injection, schedule: Q03HX016 (ip), vehicle: acid diluted with saline) was 117 % of control and the T/C (endpoint: mean survival time, dose: 1.0 mg/kg/injection, schedule: Q01DX006 (iv), vehicle: acid diluted with saline) was 116 % of control. For the same molecule, the T/C (endpoint: mean survival time, dose: 1.0 mg/kg/injection, schedule: Q01DX009 (oral), vehicle: acid diluted with saline) was 107 % of control, the T/C (endpoint: mean survival time, dose: 1.0 mg/kg/injection, schedule: Q01DX009 (oral), vehicle: saline) was 108 % of control and the T/C (endpoint: mean survival time, dose: 1.0 mg/kg/injection, schedule: Q01DX009 (sc), vehicle: acid diluted with saline) was 117 % of control. For the same molecule, the T/C (endpoint: mean survival time, dose: 1.0 mg/kg/injection, schedule: Q01DX009 (sc), vehicle: saline) was 124 % of control, the T/C (endpoint: mean survival time, dose: 1.0 mg/kg/injection, schedule: Q03HX008 (ip), vehicle: acid diluted with saline) was 120 % of control and the T/C (endpoint: mean survival time, dose: 1.0 mg/kg/injection, schedule: Q03HX016 (ip), vehicle: acid diluted with saline) was 119 % of control. For the same molecule, the T/C (endpoint: mean survival time, dose: 1.0 mg/kg/injection, schedule: Q04DX003 (ip), vehicle: acid diluted with saline) was 110 % of control, the T/C (endpoint: mean survival time, dose: 2.0 mg/kg/injection, schedule: Q01DX001 (ip), vehicle: acid diluted with saline) was 111 % of control and the T/C (endpoint: mean survival time, dose: 2.0 mg/kg/injection, schedule: Q01DX001 (iv), vehicle: acid diluted with saline) was 113 % of control. For the same molecule, the T/C (endpoint: mean survival time, dose: 2.0 mg/kg/injection, schedule: Q01DX001 (oral), vehicle: acid diluted with saline) was 105 % of control, the T/C (endpoint: mean survival time, dose: 2.0 mg/kg/injection, schedule: Q01DX001 (sc), vehicle: acid diluted with saline) was 109 % of control and the T/C (endpoint: mean survival time, dose: 2.0 mg/kg/injection, schedule: Q01DX006 (iv), vehicle: acid diluted with saline) was 116 % of control. For the same molecule, the T/C (endpoint: mean survival time, dose: 2.0 mg/kg/injection, schedule: Q01DX009 (ip), vehicle: acid diluted with saline) was 150 % of control, the T/C (endpoint: mean survival time, dose: 2.0 mg/kg/injection, schedule: Q01DX009 (oral), vehicle: acid diluted with saline) was 117 % of control and the T/C (endpoint: mean survival time, dose: 2.0 mg/kg/injection, schedule: Q01DX009 (oral), vehicle: saline) was 120 % of control. For the same molecule, the T/C (endpoint: mean survival time, dose: 2.0 mg/kg/injection, schedule: Q01DX009 (sc), vehicle: saline) was 116 % of control, the T/C (endpoint: mean survival time, dose: 2.0 mg/kg/injection, schedule: Q08DX002 (ip), vehicle: acid diluted with saline) was 107 % of control and the T/C (endpoint: mean survival time, dose: 4.0 mg/kg/injection, schedule: Q01DX001 (ip), vehicle: acid diluted with saline) was 114 % of control. The T/C (endpoint: mean survival time, dose: 4.0 mg/kg/injection, schedule: Q01DX001 (iv), vehicle: acid diluted with saline) was 109 % of control, the T/C (endpoint: mean survival time, dose: 4.0 mg/kg/injection, schedule: Q01DX001 (oral), vehicle: acid diluted with saline) was 109 % of control and the T/C (endpoint: mean survival time, dose: 4.0 mg/kg/injection, schedule: Q01DX001 (sc), vehicle: acid diluted with saline) was 109 % of control. For the same molecule, the T/C (endpoint: mean survival time, dose: 4.0 mg/kg/injection, schedule: Q01DX006 (iv), vehicle: acid diluted with saline) was 122 % of control, the T/C (endpoint: mean survival time, dose: 4.0 mg/kg/injection, schedule: Q01DX009 (ip), vehicle: acid diluted with saline) was 86 % of control and the T/C (endpoint: mean survival time, dose: 4.0 mg/kg/injection, schedule: Q01DX009 (oral), vehicle: acid diluted with saline) was 123 % of control. The T/C (endpoint: mean survival time, dose: 4.0 mg/kg/injection, schedule: Q01DX009 (sc), vehicle: acid diluted with saline) was 111 % of control, the T/C (endpoint: mean survival time, dose: 4.0 mg/kg/injection, schedule: Q04DX003 (ip), vehicle: acid diluted with saline) was 119 % of control and the T/C (endpoint: mean survival time, dose: 4.0 mg/kg/injection, schedule: Q08DX002 (ip), vehicle: acid diluted with saline) was 109 % of control. For the same molecule, the T/C (endpoint: mean survival time, dose: 8.0 mg/kg/injection, schedule: Q01DX001 (iv), vehicle: acid diluted with saline) was 114 % of control, the T/C (endpoint: mean survival time, dose: 8.0 mg/kg/injection, schedule: Q04DX003 (ip), vehicle: acid diluted with saline) was 102 % of control and the T/C (endpoint: mean survival time, dose: 125.0 micrograms/kg/injection, schedule: Q03HX024 (ip), vehicle: acid diluted with saline) was 119 % of control. The T/C (endpoint: mean survival time, dose: 1000.0 micrograms/kg/injection, schedule: Q03HX024 (ip), vehicle: acid diluted with saline) was 89 % of control, the T/C (endpoint: median survival time, dose: 1.0 mg/kg/injection, schedule: Q04DX003 (ip), vehicle: saline) was 110 % of control and the T/C (endpoint: median survival time, dose: 2.0 mg/kg/injection, schedule: Q04DX003 (ip), vehicle: saline) was 113 % of control. For the same molecule, the T/C (endpoint: median survival time, dose: 4.0 mg/kg/injection, schedule: Q04DX003 (ip), vehicle: saline) was 100 % of control.
With Nc1ncnc2oc(-c3ccccc3)c(-c3ccccc3)c12 the T/C (endpoint: mean survival time, dose: 50.0 mg/kg/injection, schedule: Q04DX002 (ip), vehicle: saline with Tween-80) was 91 % of control and the T/C [1] was 88 % of control.
O=C(O)/C(=C\c1cccc(Br)c1)c1ccccc1 was tested, and the T/C (endpoint: mean survival time, dose: 75.0 mg/kg/injection, schedule: Q04DX003 (ip), vehicle: Klucel (hydroxypropylcellulose) (HPC)) was 104 % of control, the T/C [2] was 105 % of control and the T/C (endpoint: mean survival time, dose: 150.0 mg/kg/injection, schedule: Q04DX003 (ip), vehicle: Klucel (hydroxypropylcellulose) (HPC)) was 96 % of control. The T/C [3] was 97 % of control, the T/C (endpoint: mean survival time, dose: 300.0 mg/kg/injection, schedule: Q04DX003 (ip), vehicle: Klucel (hydroxypropylcellulose) (HPC)) was 105 % of control and the T/C [4] was 97 % of control.
In the case of ClCCCCOCCl, the T/C (endpoint: mean survival time, dose: 50.0 mg/kg/injection, schedule: Q01DX009 (ip), vehicle: saline with Tween-80) was 101 % of control, the T/C (endpoint: mean survival time, dose: 100.0 mg/kg/injection, schedule: Q01DX009 (ip), vehicle: saline with Tween-80) was 97 % of control and the T/C (endpoint: mean survival time, dose: 200.0 mg/kg/injection, schedule: Q01DX009 (ip), vehicle: saline with Tween-80) was 87 % of control.
With CCCCCCCCCCCC(CCCCCCCC)C1CCCCC1 (configuration not stated) the T/C (endpoint: mean survival time, dose: 100.0 mg/kg/injection, schedule: Q01DX001 (ip), vehicle: saline + alcohol) was 101 % of control, the T/C (endpoint: mean survival time, dose: 200.0 mg/kg/injection, schedule: Q01DX001 (ip), vehicle: saline + alcohol) was 103 % of control and the T/C (endpoint: mean survival time, dose: 400.0 mg/kg/injection, schedule: Q01DX001 (ip), vehicle: saline + alcohol) was 108 % of control.
With Cc1ncc(CO)c(Cc2ccccc2N(C)C)c1O the T/C [1] was 92 % of control and the T/C (endpoint: mean survival time, dose: 200.0 mg/kg/injection, schedule: Q04DX002 (ip), vehicle: saline with Tween-80) was 95 % of control.
CN(C)C(C#N)C(=O)c1ccc(Cl)cc1 (configuration not stated) was tested, and the T/C [5] was 91 % of control and the T/C [6] was 95 % of control.
CC1CCCN(C(=O)CCCCl)C1 (configuration not stated) was tested, and the T/C (endpoint: mean survival time, dose: 100.0 mg/kg/injection, schedule: Q04DX002 (ip), vehicle: saline) was 96 % of control, the T/C (endpoint: mean survival time, dose: 200.0 mg/kg/injection, schedule: Q04DX002 (ip), vehicle: saline) was 99 % of control and the T/C (endpoint: mean survival time, dose: 400.0 mg/kg/injection, schedule: Q04DX002 (ip), vehicle: saline) was 99 % of control.
With CCOC(=O)N1CCN2C(=O)N(CC)CCC2C1 (configuration not stated) the T/C [5] was 93 % of control, the T/C [6] was 93 % of control and the T/C (endpoint: mean survival time, dose: 400.0 mg/kg/injection, schedule: Q01DX001 (ip), vehicle: saline) was 94 % of control.
With CNCCN1CCC(Cc2ccccc2)CC1 the T/C (endpoint: mean survival time, dose: 50.0 mg/kg/injection, schedule: Q01DX009 (ip), vehicle: saline) was 112 % of control, the T/C (endpoint: mean survival time, dose: 100.0 mg/kg/injection, schedule: Q01DX009 (ip), vehicle: saline) was 102 % of control and the T/C (endpoint: mean survival time, dose: 200.0 mg/kg/injection, schedule: Q01DX009 (ip), vehicle: saline) was 121 % of control.
For CC1=CC(=O)C2CCC=C(C(=O)O)C2(C)C1=O (configuration not stated), the T/C (endpoint: mean survival time, dose: 100.0 mg/kg/injection, schedule: Q04DX003 (ip), vehicle: alcohol) was 97 % of control, the T/C (endpoint: mean survival time, dose: 200.0 mg/kg/injection, schedule: Q04DX003 (ip), vehicle: alcohol) was 102 % of control and the T/C (endpoint: mean survival time, dose: 400.0 mg/kg/injection, schedule: Q04DX003 (ip), vehicle: alcohol) was 97 % of control.
In the case of Nc1nc(Cl)c(CCCCc2ccccc2)c(C(=O)O)n1, the T/C [2] was 93 % of control, the T/C [3] was 91 % of control and the T/C [4] was 101 % of control.
